Experimental data published in paper PMC7613515, “Reading and erasing of the phosphonium analogue of trimethyllysine by epigenetic proteins” (Communications Chemistry, 2022).

Key:
KDM4EJmjC (M1–Q337) = target: T1, KDM4EJmjC (M1–Q337) (Homo sapiens, UniProt B2RXH2); assay: NMR demethylation assay (1H, 31P), KDM4EJmjC; type: biochemical; conditions: KDM4EJmjC 50 µM
T1 construct: We chose human KDM4EJmjC (M1–Q337); made in house
T1 sequence (B2RXH2 1-337): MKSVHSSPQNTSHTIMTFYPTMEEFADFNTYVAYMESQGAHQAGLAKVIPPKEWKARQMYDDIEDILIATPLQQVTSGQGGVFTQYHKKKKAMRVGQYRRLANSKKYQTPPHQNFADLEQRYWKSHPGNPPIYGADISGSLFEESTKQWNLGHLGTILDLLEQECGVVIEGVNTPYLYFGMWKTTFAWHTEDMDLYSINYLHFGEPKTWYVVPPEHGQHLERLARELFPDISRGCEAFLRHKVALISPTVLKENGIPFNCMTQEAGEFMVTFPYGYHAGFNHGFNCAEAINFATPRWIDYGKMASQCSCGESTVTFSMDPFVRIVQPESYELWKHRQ
Experimental: Incubations of H3_1-15KP9me3 with KDM4EJmjC were performed in Eppendorf tubes (1.5 mL). Conditions used for ^1H and ^31P NMR time-courses: H3_1-15KP9me3 (250 µM) was incubated with KDM4EJmjC (50 µM), sodium ascorbate (1.00 mM), 2OG (500 µM), and Fe(NH4)2(SO4)2 (100 µM) in HEPES-d18 buffer (50 mM, pH 7.5) in D2O ( > 95% ^2H). Reactions (160 µL total volume) were quenched by addition of HCl (1 M, 10 equivalents) after the indicated time. The samples were centrifuged (1 min, 14,500 rpm) and the supernatant transferred to an NMR tube (3 mm, Norell). For characterisation of the products from the incubation of H3_1-15KP9me3 with KDM4EJmjC the following conditions were used: Peptide H3_1-15KP9me3 (500 µM) was incubated with sodium ascorbate (1.00 mM) 2-oxoglutarate (1.00 mM), Fe(NH4)2(SO4)2 (100 µM), and KDM4EJmjC (50.0 µM), in HEPES-d18 buffer (50 mM, pH 7.5) in D2O (>95% ^2H) for 1 hour. Reactions were quenched by addition of HCl (1 M, 10 equivalents), or by heating (95 °C, 10 min). Precipitated proteins were removed by centrifugation (1 min, 14,500 rpm) and the supernatant transferred to an NMR tube (3 mm, Norell). Spectra were measured using a Bruker 600 MHz machine and analysed using MestReNova 14.1 (MestReLabs, Spain; www.mestrelab.com) and Topspin 3.6.1 (Bruker, Germany; www.bruker.com). […]

KDM3AJmjC (T515–S1317) = assay: MALDI-TOF demethylation assay, KDM3AJmjC; type: biochemical; conditions: 1 hr
Text: To investigate whether H3KP9me3 can be demethylated by other human KDM4 subfamily members, recombinant KDM4AJmjC (M1–L359) and KDM4DJmjC (M1–L358) were produced in E. coli following an adaption of literature procedures[38],[39]. […] To test the ability of KDM3 and KDM7 subfamily representatives to demethylate H3KP9me2 or H3KP9me3, KDM3AJmjC (T515–S1317) and KDM7BJmjC (M37–N483) were produced using baculovirus/sf9 and E. coli expression systems, respectively[40],[41]. The synthesis of a histone H3 mimic peptide H3KP9me2 substrate is challenging as the tri-alkylated phosphine group is susceptible to oxidation during synthesis of the protected amino acid and during SPPS requiring oxygen-free conditions. Thus, to investigate if KDM3AJmjC or KDM7BJmjC can catalyse demethylation of H3KP9me2, an appropriate H3KP9me2 substrate was prepared in situ from H3KP9me3 using KDM4EJmjC (2.0 µM), in the presence of KDM3AJmjC (2.0 µM) or KDM7BJmjC (2.0 µM).
A Bruker Daltonics MALDI-TOF/TOF AutoflexSpeed machine and Bruker MTP 384 target plates (polished steel BC, Part: 8280781) were used. The machine was controlled using Flex control (v. 3.4 build 135.10) and Compass for flex series (v. 1.4) software. Measurements were in the positive ion mode with the reflectron mode enabled. […] Samples were then analysed by MALDI-TOF. […]

“ARTKQTAR(KPme3)STGGKA [H3KP9me3, histone H3 residues 1–15 with trimethylphosphonium lysine analogue at position 9]” was tested, and the “demethylation” value (KDM4EJmjC (M1–Q337); 1H and 31P NMR, H3KP9me3 250 or 500 µM, HEPES-d18 pH 7.5 in D2O) was “the reaction proceeded to give signals corresponding to H3KP9me2 and H3KP9me2O”, the “demethylation with 2OG turnover to succinate” value (KDM4EJmjC (M1–Q337); NMR time-course, H3KP9me3 250 µM) was “confirmed demethylation and conversion of 2OG to succinate” and the “demethylation in combination with KDM4EJmjC” value (KDM3AJmjC (T515–S1317); KDM3AJmjC 2.0 µM plus KDM4EJmjC 2.0 µM, peptide 5.0 µM) was “produced H3KP9me2 (due to KDM4EJmjC catalysis), but did not result in masses consistent with H3KP9me1 or H3KP9”. For the same substance, the “demethylation” value (KDM3AJmjC (T515–S1317); KDM3AJmjC 2.0 µM, H3KP9me2 prepared in situ with KDM4EJmjC) was “do not catalyse demethylation of H3K9me3 (as anticipated) or H3KP9me3”.
